Source: patent US12172995B2, “Substituted indole and indazole compounds” (BRISTOL-MYERS SQUIBB COMPANY, priority 2018, dated 2024)

Experiments:
Assay type in all cases: cell-based
human TLR7 = target: T1, human TLR7 (Homo sapiens, UniProt Q9NYK1); assay: TLR7 inhibition reporter assay (HEK-Blue SEAP); settings: HEK-Blue cells overexpressing human TLR7, stimulated with gardiquimod 7.5 μM, 22 hour incubation
T1 construct: host or cells: HEK-Blue cells
T1 sequence (Q9NYK1 27-1049): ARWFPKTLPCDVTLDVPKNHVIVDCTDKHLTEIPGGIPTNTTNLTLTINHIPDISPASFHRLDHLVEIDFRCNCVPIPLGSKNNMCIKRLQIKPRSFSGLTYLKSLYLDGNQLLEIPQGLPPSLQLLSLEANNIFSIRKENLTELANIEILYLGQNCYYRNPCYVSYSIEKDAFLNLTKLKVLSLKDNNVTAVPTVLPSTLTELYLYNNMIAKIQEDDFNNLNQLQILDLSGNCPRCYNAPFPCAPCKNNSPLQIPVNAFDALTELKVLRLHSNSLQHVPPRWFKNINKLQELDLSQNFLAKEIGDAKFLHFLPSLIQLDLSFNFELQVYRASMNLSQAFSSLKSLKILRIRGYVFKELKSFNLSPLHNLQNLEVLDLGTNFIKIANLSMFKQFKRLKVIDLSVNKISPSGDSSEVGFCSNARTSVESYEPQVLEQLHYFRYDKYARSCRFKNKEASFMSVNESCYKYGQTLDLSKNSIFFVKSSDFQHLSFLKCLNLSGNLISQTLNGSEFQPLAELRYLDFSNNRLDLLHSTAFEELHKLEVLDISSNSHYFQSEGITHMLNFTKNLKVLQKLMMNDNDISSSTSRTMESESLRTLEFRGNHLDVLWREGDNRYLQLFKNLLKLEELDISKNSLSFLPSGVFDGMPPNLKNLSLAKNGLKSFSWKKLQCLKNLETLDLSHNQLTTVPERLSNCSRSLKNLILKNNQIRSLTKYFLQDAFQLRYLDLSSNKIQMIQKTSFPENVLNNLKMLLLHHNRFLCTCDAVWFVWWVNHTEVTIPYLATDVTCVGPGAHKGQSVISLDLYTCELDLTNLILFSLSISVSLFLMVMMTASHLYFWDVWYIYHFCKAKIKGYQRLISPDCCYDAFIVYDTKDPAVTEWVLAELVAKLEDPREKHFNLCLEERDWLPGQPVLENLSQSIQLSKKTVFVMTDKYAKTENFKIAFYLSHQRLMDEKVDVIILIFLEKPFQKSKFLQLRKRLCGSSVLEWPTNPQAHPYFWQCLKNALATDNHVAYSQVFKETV
Outline: (§1)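 Cells are seeded, given test compound across 0.05 nM to 50 μM, and after 30 min at room temperature stimulated with the receptor's agonist (gardiquimod 7.5 μM, R848 15.9 μM or ODN2006 5 nM for TLR7, 8, 9). SEAP is measured after 22 h at 37 °C.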

human TLR8 = target: T2, human TLR8 (Homo sapiens, UniProt Q9NR97); assay: TLR8 inhibition reporter assay (HEK-Blue SEAP); settings: HEK-Blue cells overexpressing human TLR8, stimulated with R848 15.9 μM, 22 hour incubation
T2 construct: host or cells: HEK-Blue cells
T2 sequence (Q9NR97 27-1041): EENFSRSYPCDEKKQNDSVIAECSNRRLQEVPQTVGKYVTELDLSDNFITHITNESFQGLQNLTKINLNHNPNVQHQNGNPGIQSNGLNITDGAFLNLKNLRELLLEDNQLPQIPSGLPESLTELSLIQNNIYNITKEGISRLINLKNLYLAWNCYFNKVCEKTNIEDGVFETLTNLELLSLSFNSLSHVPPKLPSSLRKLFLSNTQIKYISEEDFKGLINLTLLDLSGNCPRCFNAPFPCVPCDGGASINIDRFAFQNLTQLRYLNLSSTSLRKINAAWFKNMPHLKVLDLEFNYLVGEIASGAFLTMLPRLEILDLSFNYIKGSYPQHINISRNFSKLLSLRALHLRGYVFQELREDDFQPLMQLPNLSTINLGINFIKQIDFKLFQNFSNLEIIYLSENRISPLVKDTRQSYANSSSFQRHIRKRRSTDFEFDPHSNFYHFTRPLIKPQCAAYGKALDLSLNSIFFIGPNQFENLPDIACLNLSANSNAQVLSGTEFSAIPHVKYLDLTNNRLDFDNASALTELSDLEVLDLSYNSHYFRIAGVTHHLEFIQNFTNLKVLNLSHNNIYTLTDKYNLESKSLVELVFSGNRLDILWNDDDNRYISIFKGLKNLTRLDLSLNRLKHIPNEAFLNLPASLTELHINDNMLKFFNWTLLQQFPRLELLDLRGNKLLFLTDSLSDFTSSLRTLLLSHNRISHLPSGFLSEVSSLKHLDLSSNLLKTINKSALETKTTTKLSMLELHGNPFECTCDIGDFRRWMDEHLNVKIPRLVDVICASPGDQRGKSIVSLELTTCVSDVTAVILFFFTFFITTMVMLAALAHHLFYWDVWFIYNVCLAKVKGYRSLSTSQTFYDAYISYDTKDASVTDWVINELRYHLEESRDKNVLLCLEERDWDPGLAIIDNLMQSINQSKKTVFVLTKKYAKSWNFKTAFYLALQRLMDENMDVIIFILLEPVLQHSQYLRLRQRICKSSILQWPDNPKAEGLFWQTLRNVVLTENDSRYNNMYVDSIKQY
Outline: as §1

human TLR9 = target: T3, human TLR9 (Homo sapiens, UniProt Q9NR96); assay: TLR9 inhibition reporter assay (HEK-Blue SEAP); settings: HEK-Blue cells overexpressing human TLR9, stimulated with ODN2006 5 nM, 22 hour incubation
T3 construct: host or cells: HEK-Blue cells
T3 sequence (Q9NR96 26-1032): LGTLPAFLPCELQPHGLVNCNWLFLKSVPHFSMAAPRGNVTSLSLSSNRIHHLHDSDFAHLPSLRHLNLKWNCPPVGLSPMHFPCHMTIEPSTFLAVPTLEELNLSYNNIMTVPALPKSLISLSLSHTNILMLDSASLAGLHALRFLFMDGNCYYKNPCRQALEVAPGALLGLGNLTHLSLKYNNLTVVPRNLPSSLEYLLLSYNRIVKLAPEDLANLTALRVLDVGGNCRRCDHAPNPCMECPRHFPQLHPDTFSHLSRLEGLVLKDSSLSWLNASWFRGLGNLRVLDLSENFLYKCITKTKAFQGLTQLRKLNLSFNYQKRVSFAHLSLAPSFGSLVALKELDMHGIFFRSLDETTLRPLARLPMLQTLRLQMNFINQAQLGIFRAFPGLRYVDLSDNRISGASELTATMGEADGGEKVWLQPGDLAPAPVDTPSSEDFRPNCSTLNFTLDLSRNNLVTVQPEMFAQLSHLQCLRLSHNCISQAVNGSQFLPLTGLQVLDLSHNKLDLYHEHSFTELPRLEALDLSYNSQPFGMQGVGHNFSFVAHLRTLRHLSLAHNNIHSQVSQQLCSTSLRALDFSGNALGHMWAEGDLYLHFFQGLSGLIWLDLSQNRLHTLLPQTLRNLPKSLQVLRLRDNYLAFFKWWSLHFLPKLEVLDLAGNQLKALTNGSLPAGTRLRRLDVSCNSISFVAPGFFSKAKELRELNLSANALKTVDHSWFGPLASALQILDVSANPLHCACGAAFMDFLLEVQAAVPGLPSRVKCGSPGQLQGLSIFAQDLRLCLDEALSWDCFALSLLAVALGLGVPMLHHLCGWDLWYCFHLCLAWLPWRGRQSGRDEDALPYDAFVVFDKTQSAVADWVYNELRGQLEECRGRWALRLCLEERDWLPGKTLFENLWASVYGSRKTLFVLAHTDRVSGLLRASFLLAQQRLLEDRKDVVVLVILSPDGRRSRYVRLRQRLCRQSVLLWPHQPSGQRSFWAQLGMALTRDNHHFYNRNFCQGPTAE
Outline: as §1

Cc1cc(-c2cc3[nH]nc(C4CCN(C(=O)CCN(C)C)CC4)c3cc2C(C)C)cn2ncnc12 [Example 122, 3-(dimethylamino)-1-(4-(5-isopropyl-6-(8-methyl-[1,2,4]triazolo[1,5-a]pyridin-6-yl)-1H-indazol-3-yl)piperidin-1-yl)propan-1-one]
IC50 (human TLR7): 3.2 nM | IC50 (human TLR8): 0.8 nM | IC50 (human TLR9): 13700 nM

Cc1cc(-c2ccc3c(C4CCC(N(C)C)CC4)c[nH]c3c2)cn2ncnc12 (single isomer, unassigned) [Example 15, N,N-dimethyl-4-(6-(8-methyl-[1,2,4]triazolo[1,5-a]pyridin-6-yl)-1H-indol-3-yl) cyclohexan-1-amine]
IC50 (human TLR7): 29.4 nM | IC50 (human TLR8): 25.9 nM | IC50 (human TLR9): 1130 nM

Cc1cc(-c2ccc3c(NC4CCNCC4)n[nH]c3c2)cn2ncnc12 [Example 200, 6-(8-methyl-[1,2,4]triazolo[1,5-a]pyridin-6-yl)-N-(piperidin-4-yl)-1H-indazol-3-amine]
IC50 (human TLR7): 289 nM | IC50 (human TLR8): 149 nM | IC50 (human TLR9): 1890 nM

Cc1cc2c(C3CCN(C4COC4)CC3)n[nH]c2cc1-c1cc(C)c2ncnn2c1 [Example 73, 8-methyl-6-(5-methyl-3-(1-(oxetan-3-yl)piperidin-4-yl)-1H-indazol-6-yl)-[1,2,4] triazolo[1,5-a]pyridine]
IC50 (human TLR7): 52.3 nM | IC50 (human TLR8): 4.3 nM | IC50 (human TLR9): 9070 nM

CCc1cc2c(C3CCN(Cc4cn(C)nn4)CC3)n[nH]c2cc1-c1cc(C)c2ncnn2c1 [Example 105, 6-(5-ethyl-3-(1-((1-methyl-1H-1,2,3-triazol-4-yl)methyl)piperidin-4-yl)-1H-indazol-6-yl)-8-methyl-[1,2,4] triazolo[1,5-a]pyridine]
IC50 (human TLR7): 5.1 nM | IC50 (human TLR8): 0.1 nM | IC50 (human TLR9): 8780 nM

Cc1cc(-c2cc(C)c3ncnn3c2)cc2[nH]nc(OC3CCC(NCC(=O)N(C)C)CC3)c12 (single isomer, unassigned) [Example 186, N,N-dimethyl-2-((4-((4-methyl-6-(8-methyl-[1,2,4]triazolo[1,5-a]pyridin-6-yl)-1H-indazol-3-yl)oxy)cyclohexyl)amino)acetamide]
IC50 (human TLR7): 2.4 nM | IC50 (human TLR8): 1.9 nM | IC50 (human TLR9): 2550 nM

Cc1cc(-c2cc3[nH]nc(C4CCC(N5CC6(CCOC6)C5)CC4)c3cc2C(C)C)cn2ncnc12 (stereo not drawn) [Example 158, 2-(4-(5-isopropyl-6-(8-methyl-[1,2,4]triazolo[1,5-a]pyridin-6-yl)-1H-indazol-3-yl)cyclohexyl)-6-oxa-2-azaspiro[3.4]octane]
IC50 (human TLR7): 0.5 nM | IC50 (human TLR8): 0.2 nM | IC50 (human TLR9): 9850 nM

Cc1cc(-c2cc(C)c3ncnn3c2)cc2[nH]nc(C3CCN(C4CCOCC4)CC3)c12 [Example 78, 8-methyl-6-(4-methyl-3-(1-(tetrahydro-2H-pyran-4-yl)piperidin-4-yl)-1H-indazol-6-yl)-[1,2,4]triazolo[1,5-a]pyridine]
IC50 (human TLR7): 92.2 nM | IC50 (human TLR8): 252 nM | IC50 (human TLR9): 24500 nM

CCc1cc2c(C3CCNCC3)n[nH]c2cc1-c1cc(C)c2ncnn2c1 [Example 82, 6-(5-ethyl-3-(piperidin-4-yl)-1H-indazol-6-yl)-8-methyl-[1,2,4]triazolo[1,5-a]pyridine]
IC50 (human TLR7): 1.6 nM | IC50 (human TLR8): 0.4 nM | IC50 (human TLR9): 2200 nM

Cc1cc2c(OC3CCN(C)CC3)n[nH]c2cc1-c1cc(C)c2ncnn2c1 [Example 171, 8-methyl-6-(5-methyl-3-((1-methylpiperidin-4-yl)oxy)-1H-indazol-6-yl)-[1,2,4]triazolo[1,5-a] pyridine]
IC50 (human TLR7): 8.2 nM | IC50 (human TLR8): 0.1 nM | IC50 (human TLR9): 2770 nM

Cc1cc(-c2cc3[nH]nc(C4CCC(NCCS(C)(=O)=O)CC4)c3cc2C(C)C)cn2ncnc12 (stereo not drawn) [Example 127, 4-(5-isopropyl-6-(8-methyl-[1,2,4]triazolo[1,5-a]pyridin-6-yl)-1H-indazol-3-yl)-N-(2-(methylsulfonyl)ethyl) cyclohexan-1-amine]
IC50 (human TLR7): 1.9 nM | IC50 (human TLR8): 0.1 nM | IC50 (human TLR9): 8470 nM

Cc1cc(-c2cc3[nH]nc(C4CCC(N5CC(F)(F)C5)CC4)c3cc2C(C)C)cn2ncnc12 (single isomer, unassigned) [Example 134, 6-(3-(4-(3,3-difluoroazetidin-1-yl)cyclohexyl)-5-isopropyl-1H-indazol-6-yl)-8-methyl-[1,2,4]triazolo[1,5-a]pyridine]
IC50 (human TLR7): 2.5 nM | IC50 (human TLR8): 0.2 nM | IC50 (human TLR9): 15900 nM

CCc1cc2c(C3CCC(NCC(=O)N(C)C)CC3)n[nH]c2cc1-c1cc(C)c2ncnn2c1 (stereo not drawn) [Example 95, 2-((4-(5-ethyl-6-(8-methyl-[1,2,4]triazolo[1,5-a]pyridin-6-yl)-1H-indazol-3-yl)cyclohexyl)amino)-N,N-dimethylacetamide]
IC50 (human TLR7): 5.4 nM | IC50 (human TLR8): 0.2 nM | IC50 (human TLR9): 10800 nM

CCc1cc2c(C3CCC(N(C)C)CC3)n[nH]c2cc1-c1cc(C)c2ncnn2c1 (single isomer, unassigned) [Example 93, 4-(5-ethyl-6-(8-methyl-[1,2,4]triazolo[1,5-a]pyridin-6-yl)-1H-indazol-3-yl)-N,N-dimethylcyclohexan-1-amine]
IC50 (human TLR7): 0.8 nM | IC50 (human TLR8): 0.1 nM | IC50 (human TLR9): 6120 nM
